Source: article PMC9784969, “SARS-CoV-2 Inhibitors Identified by Phenotypic Analysis of a Collection of Viral RNA-Binding Molecules” (Pharmaceuticals, 2022)
Like-named read-outs stand apart in the source and are kept apart here.

Experiments:
ATTL RNA = test: ligand-based 1H NMR (1D, CPMG, wLOGSY); type: binding, SARS-CoV-2
[1] = tested on: subdomain IIa of the internal ribosome entry site (IRES) RNA of HCV; design: method as in earlier work; settings: ref 6 (Table S1 list: Martín-Villamil et al. 2022); cited from earlier work
SARS-CoV-2 = type: cell-based; settings: 48 h post-infection
SARS-CoV-2 USA-WA1/2020 [2] = test: microbe, parasite or virus in culture; type: cell-based; settings: Severe acute respiratory syndrome coronavirus 2, Vero C1008, 48 h, Vero E6 cells, MOI 0.025, two days; read-out: SARS-CoV-2 EC50
3_S2m RNA = test: RNA-based 1H NMR (TOCSY) titration; type: binding, SARS-CoV-2; settings: RNA:ligand up to 1:4
Protocol: The RNA samples were previously diafiltrated into an aqueous solution containing 25 mM potassium phosphate (pH 6.2), 50 mM KCl and 0.1 mM EDTA, and the titration experiments were carried out at 27 °C using 50 μM RNA samples in 100% D2O. The 3_S2m titrations were duplicated at 25 °C using 120 μM RNA samples and additionally acquiring NOESY spectra (250 ms mixing time) at 1:0 and 1:4 ratios. For this system, the chemical shift perturbation analyses included 63 H1’, H2’, and aromatic 3_S2m resonances. The isolated 3_S2m hairpin was studied at two different temperatures (25 and 35 °C) using 120 and 500 μM RNA samples and similar TOCSY and NOESY (120 and 250 ms mixing times) experiments. […] The relaxation delay for NOESY and TOCSY acquisition was 2 and 1.5 s, respectively.

PRF RNA = test: ligand-based 1H NMR (1D, CPMG, wLOGSY); type: binding, SARS-CoV-2
SARS-CoV-2 USA-WA1/2020 [3] = test: microbe, parasite or virus in culture; type: cell-based; settings: Severe acute respiratory syndrome coronavirus 2, 48 h; 293T-ACE2 cells, MOI 0.25, two days; read-out: SARS-CoV-2 EC50
3_S2m-23fl RNA hairpin = test: fluorescence intensity binding assay; design: species or system SARS-CoV-2
Protocol: The 3_S2m-23fl RNA oligonucleotide used in fluorescence intensity experiments was purchased HPLC-purified from Integrated DNA Technologies (Coralville, IA, USA). […] The mixture of tRNAs from E. coli MRE 600 (identified as tRNA^mix) used to evaluate specificity was obtained from Roche (Basel, Switzerland).
3_S2m-23fl (at 100 nM concentration) was snap-cooled in a buffer containing sodium phosphate pH 6.6, 0 or 150 mM NaCl, and 0.1 mM EDTA and incubated with increasing amounts of compound. The specificity of the RNA–ligand interactions was evaluated by repeating the assays in the presence of a 100-fold molar excess (10 μM) of tRNA^mix. The equilibrium dissociation constants Kd were obtained by fitting the dose–response curves to a two-state binding model [41] with Prism software (GraphPad Software, San Diego, CA, USA). All fluorescence binding assays were carried out three times for each molecule and condition.

Vero E6 cells = settings: read-out: SARS-CoV-2 CC50, uninfected, MTT
HIV-1 = settings: ref 3 (Table S1 list: Simba-Lahuasi et al., Unpublished results); cited from earlier work
5_SL2+3 RNA = test: RNA-based 1H NMR (TOCSY) titration; type: binding, SARS-CoV-2; settings: RNA:ligand up to 1:4
[4] = tested on: subdomain IIB of the rev recognition element (RRE) of the HIV-1 genomic RNA; settings: ref 3 (Table S1 list: Simba-Lahuasi et al., Unpublished results); cited from earlier work
[5] = average of aliphatic protons, RNA:ligand 1:100 (clomiphene) or 1:50 (trim, qz2)
[6] = average of aromatic protons, RNA:ligand 1:100 (clomiphene) or 1:50 (trim, qz2)
[7] = 0 mM NaCl, pH 6.6, 25 °C, read-out: Kd

## CC(C)CCN1CCC(CNc2nc3ccccc3c(=O)[nH]2)CC1 [qz2]
ATTL RNA; [5]
  CPMG variation: 1.57%
  LB: 4.09%
  LOGSY factor: 4.38%
ATTL RNA; [6]
  CPMG variation: 10.0%
  LB: 3.39%
  LOGSY factor: 9.98%
ATTL RNA; qz2 peak A, RNA:ligand 1:50
  CPMG variation: 7.14%
  LB: 6.48%
  LOGSY factor: 2.39%
ATTL RNA; qz2 peak C/D, RNA:ligand 1:50
  CPMG variation: 3.98%
  LB: 2.52%
  LOGSY factor: 6.82%
ATTL RNA; qz2 peak E/B, RNA:ligand 1:50
  CPMG variation: -8.59%
  LB: 7.56%
  LOGSY factor: 2.78%
ATTL RNA; qz2 peak F, RNA:ligand 1:50
  CPMG variation: 7.26%
  LB: -1.84%
  LOGSY factor: 3.39%
ATTL RNA; qz2 peak G, RNA:ligand 1:50
  CPMG variation: 2.72%
  LB: 8.16%
  LOGSY factor: 6.53%
ATTL RNA; qz2 peak I, RNA:ligand 1:50
  CPMG variation: 9.63%
  LB: 3.05%
  LOGSY factor: 10.3%
ATTL RNA; qz2 peak J, RNA:ligand 1:50
  CPMG variation: 9.03%
  LB: 12.1%
  LOGSY factor: 5.22%
ATTL RNA; qz2 peak K, RNA:ligand 1:50
  CPMG variation: 10.5%
  LB: -5.00%
  LOGSY factor: 14.4%
[1]
  Previous target RNA binding: yes
SARS-CoV-2
  viral titers in supernatants (TCID50): below the limit of detection
SARS-CoV-2 USA-WA1/2020 [2]
  EC50: 7.52 µM
3_S2m RNA
  RNA chemical shift perturbations: smaller perturbations
PRF RNA; [5]
  CPMG variation: -10.71%
  LB: -3.21%
  LOGSY factor: 3.74%
PRF RNA; [6]
  CPMG variation: 13.0%
  LB: -0.27%
  LOGSY factor: 22.5%
PRF RNA; qz2 peak A, RNA:ligand 1:50
  CPMG variation: -12.9%
  LB: -3.66%
  LOGSY factor: 3.10%
PRF RNA; qz2 peak C/D, RNA:ligand 1:50
  CPMG variation: -17.7%
  LB: -8.83%
  LOGSY factor: 7.49%
PRF RNA; qz2 peak E/B, RNA:ligand 1:50
  CPMG variation: -18.2%
  LB: 3.04%
  LOGSY factor: 2.11%
PRF RNA; qz2 peak F, RNA:ligand 1:50
  CPMG variation: -0.60%
  LB: -8.91%
  LOGSY factor: 3.69%
PRF RNA; qz2 peak G, RNA:ligand 1:50
  CPMG variation: -7.24%
  LB: 1.78%
  LOGSY factor: 2.32%
PRF RNA; qz2 peak I, RNA:ligand 1:50
  CPMG variation: 13.2%
  LB: -0.20%
  LOGSY factor: 13.3%
PRF RNA; qz2 peak J, RNA:ligand 1:50
  CPMG variation: 11.4%
  LB: -1.72%
  LOGSY factor: 42.7%
PRF RNA; qz2 peak K, RNA:ligand 1:50
  CPMG variation: 14.6%
  LB: 1.11%
  LOGSY factor: 11.4%
SARS-CoV-2 USA-WA1/2020 [3]
  EC50: 0.12 µM
3_S2m-23fl RNA hairpin; [7]
  Kd: 26.7 µM

## NCCCc1cn(C(c2ccccc2)(c2ccccc2)c2ccccc2)cn1 [trim]
Vero E6 cells
  CC50: > 89.8 µM
HIV-1
  Previous target virus activity: yes
ATTL RNA; [5]
  CPMG variation: 11.7%
  LB: 10.0%
  LOGSY factor: 5.15%
ATTL RNA; [6]
  CPMG variation: -12.7%
  LB: 9.31%
  LOGSY factor: 4.35%
ATTL RNA; trim peak A, RNA:ligand 1:50
  CPMG variation: 8.20%
  LB: 12.4%
  LOGSY factor: 7.80%
ATTL RNA; trim peak B, RNA:ligand 1:50
  CPMG variation: 17.6%
  LB: 8.81%
  LOGSY factor: 2.50%
ATTL RNA; trim peak C, RNA:ligand 1:50
  CPMG variation: -36.9%
  LB: 1.54%
  LOGSY factor: 4.56%
ATTL RNA; trim peak D, RNA:ligand 1:50
  CPMG variation: 8.68%
  LB: 7.54%
  LOGSY factor: 4.51%
ATTL RNA; trim peak E, RNA:ligand 1:50
  CPMG variation: -32.0%
  LB: 23.3%
  LOGSY factor: 3.98%
SARS-CoV-2
  viral titers in supernatants (TCID50): below the limit of detection
5_SL2+3 RNA
  TOCSY perturbations: larger variations than clomiphene or qz2
SARS-CoV-2 USA-WA1/2020 [2]
  EC50: 3.5 µM
3_S2m RNA
  RNA chemical shift perturbations: strongest RNA chemical shift perturbations
PRF RNA; [5]
  CPMG variation: 14.0%
  LB: 13.9%
  LOGSY factor: 29.0%
PRF RNA; [6]
  CPMG variation: 15.5%
  LB: -22.5%
  LOGSY factor: 50.5%
PRF RNA; trim peak A, RNA:ligand 1:50
  CPMG variation: 13.0%
  LB: 20.1%
  LOGSY factor: 37.0%
PRF RNA; trim peak B, RNA:ligand 1:50
  CPMG variation: 18.9%
  LB: 10.8%
  LOGSY factor: 21.0%
PRF RNA; trim peak C, RNA:ligand 1:50
  CPMG variation: 9.72%
  LB: -39.2%
  LOGSY factor: 16.7%
PRF RNA; trim peak D, RNA:ligand 1:50
  CPMG variation: 19.7%
  LB: 3.93%
  LOGSY factor: 46.0%
PRF RNA; trim peak E, RNA:ligand 1:50
  CPMG variation: 12.5%
  LB: -58.9%
  LOGSY factor: 88.8%
[4]
  Previous target RNA binding: yes
SARS-CoV-2 USA-WA1/2020 [3]
  EC50: 0.33 µM
3_S2m-23fl RNA hairpin; [7]
  Kd: 19.3 µM
3_S2m-23fl RNA hairpin; 150 mM NaCl, 100-fold molar excess of tRNA, read-out: Kd-tRNA
  Kd: 8.97 µM
3_S2m-23fl RNA hairpin; 150 mM NaCl, pH 6.6, 25 °C, no tRNA, read-out: Kd
  Kd: 12.5 µM
